Peptide text beside a SMILES is read from it. * marks the point of attachment. Cbz = O=C(OCc1ccccc1)*
What was measured:
ERα [1] = test: LATS1-induced ERα degradation in LATS1 overexpressing cells (immunoblot); assay type: cell-based, human
Experimental: Cell lines and in vitro experiments SUM159PT human breast cancer cells were from Asterand and propagated as recommended. All the other cell lines were from, and were cultured according to the protocol of ATCC. MCF10A cells were maintained as previously described (Bentires-Alj et al., 2006). For most experiments, MCF10A, SUM159 and MDA 436 cells were cultured in M5 medium and the medium was refreshed or replaced every 3 days. Antibody blocking experiments were performed by adding anti-AREG (R&D, MAB262, 0.5-10 μg/ml) or a mouse IgG antibody (R&D, 10 or 2.5 μg/ml) to the medium prior to seeding of the cells or transferring the conditioned medium. Cell viability was measured using the Cell Proliferation Reagent WST-1 (Roche). Colony formation assays were performed by seeding 500-1000 cells/well in 6-well plates. Cells were allowed to adhere overnight before treatment with inhibitors or solvent as indicated. Colonies were stained after 6-10 days with 0.2% crystal violet in PBS/4% formalin. Colony area was quantified using the Odyssey scanner and software (LICOR) or Image-J (Fiji 64 bit). For sphere formation assays, 4000 (passage 1) or 1000 (subsequent passages) MCF10A cells/ml were grown in ultra-low attachment (ULA) dishes (Corning) for 5-7 days. […]

SUM159 and MDA 436 = test: Colony formation of triple-negative breast cancer lines with or without LATS; assay type: cell-based, human; settings: SUM159 and MDA 436 in M5 medium
Excerpt: (§1) Lentiviral vectors, lentivirus production and infection For LATS knockdown, the following TRC pLKO clones (Sigma) were used: LATS_1=NM_004690.x-2666s1c1, LATS_2=NM_004690.x-3614s1c1, LATS_3=NM_014572.x-2894s1c1 and the MISSION® Non-Target shRNA Control Vector SHC002. For the competition experiment, GFP and ERα expressing lentiviral vectors were cloned as described in (Duss, BCR, 2007). Lentiviruses were produced by PEI transfection of 293 T cells as described (Britschgi et al., 2012; Duss et al., 2014). The titer of each lentiviral batch was determined on PHBECs or MCF10A cells. Cell lines were infected o/n in the presence of hexamethrine bromide (8 μg/mL). Infections were performed at a multiplicity of infection of 5-20 viral particles per cell. Selection with 1.25-1.5 μg/ml puromycin was applied 48 h after infection.
(§2) Cell lines and in vitro experiments SUM159PT human breast cancer cells were from Asterand and propagated as recommended. All the other cell lines were from, and were cultured according to the protocol of ATCC. MCF10A cells were maintained as previously described (Bentires-Alj et al., 2006). […] Cell viability was measured using the Cell Proliferation Reagent WST-1 (Roche). […] Colony area was quantified using the Odyssey scanner and software (LICOR) or Image-J (Fiji 64 bit). […]

ERα [2] = target: T1, ERα (Homo sapiens, UniProt P03372); test: ERα degradation in luminal breast cancer cells lacking LATS; assay type: cell-based; settings: cancer cells lacking LATS grown as xenograft
T1 sequence (P03372 1-595): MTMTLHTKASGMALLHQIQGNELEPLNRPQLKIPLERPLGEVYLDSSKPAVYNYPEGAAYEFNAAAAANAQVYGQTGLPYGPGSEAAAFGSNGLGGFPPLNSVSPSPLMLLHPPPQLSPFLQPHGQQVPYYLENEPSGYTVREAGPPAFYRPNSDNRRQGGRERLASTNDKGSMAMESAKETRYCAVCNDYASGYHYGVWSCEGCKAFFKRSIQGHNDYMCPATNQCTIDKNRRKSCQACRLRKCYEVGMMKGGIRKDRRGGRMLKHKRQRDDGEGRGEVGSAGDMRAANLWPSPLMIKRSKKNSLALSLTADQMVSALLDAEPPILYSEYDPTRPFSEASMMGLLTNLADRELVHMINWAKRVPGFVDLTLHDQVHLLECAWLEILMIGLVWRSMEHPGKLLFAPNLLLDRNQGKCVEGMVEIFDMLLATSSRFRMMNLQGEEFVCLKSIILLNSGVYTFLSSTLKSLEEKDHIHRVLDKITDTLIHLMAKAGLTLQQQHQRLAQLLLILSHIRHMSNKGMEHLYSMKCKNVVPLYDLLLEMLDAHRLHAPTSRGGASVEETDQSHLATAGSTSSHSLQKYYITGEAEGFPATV
Experimental: Immunoblotting and immunoprecipitation Cells for immunoblotting and ELISA were lysed with RIPA buffer (50 mM Tris-HCl pH 8, 150 mM NACl, 1% NP-40, 0.5% sodium deoxycholate, 0.1% SDS), supplemented with 1× protease inhibitor cocktail (Complete Mini, Roche), 0.2 mMol/L sodium orthovanadate, 20 mM sodium fluoride and 1 mM phenylmethylsulfonyl fluoride. […]

T47D = test: Orthotopic xenograft tumor growth of ER-positive breast cancer cells lacking LATS; assay type: in vivo, mouse; settings: cancer cells lacking LATS grown as xenograft, intraperitoneal
Experimental: Animal experiments SCID/beige and SCID/NOD (Jackson Labs) were used in compliance with the Swiss laws for animal welfare and animal protocols were approved by the Swiss Cantonal Veterinary Office of Basel. For orthotopic engraftment of breast cancer cell lines, 2×10^6 T47D or 1×10^6 SUM159 cells were suspended in a 100 μl mixture of Basement Membrane Matrix Phenol Red-free (BD Biosciences) and PBS 1:1 and injected into the mouse mammary gland 4. For the estrogen-dependent T47D cell line, mice received estrogen-containing drinking water 2 days prior to injection. Tumor-bearing mice were randomized based on tumor volume prior to the initiation of treatment, which started when average tumor volume was at least 100 mm^3. Fulvestrant and Tamoxifen hydrate dissolved in sunflower seed oil (all from Sigma) were injected intraperitoneally as indicated. Tumors were measured every 3 to 4 days with vernier calipers, and tumor volumes were calculated by the formula 0.5×(larger diameter)×(smaller diameter)^2.
Compounds and formulations Fulvestrant, 4-Hydroxytamoxifen (4-OHT), Tamoxifen (OHT), Cycloheximide and MG132 were from Sigma. Fulvestrant and MG-132 were prepared as 10 mMol/L stock solution in DMSO, 4-OHT and Cycloheximide as 10 mMol/L in ethanol and all stock solutions were stored at −20° C. […]

T47D and MCF7 cells = test: Cell viability (WST-1) of ER-positive breast cancer cells after downregulation of LATS; assay type: cell-based, human; settings: LATS downregulated vs control
Excerpt: as §1, §2

SUM159 shLATS xenografts = test: Orthotopic SUM159 shNT / shLATS xenograft tumor growth; assay type: in vivo, mouse; settings: tumor-bearing mice, tamoxifen citrate 3 mg/kg, intraperitoneal, n=5, **P<0.01 vs shNT
Experimental: Animal experiments SCID/beige and SCID/NOD (Jackson Labs) were used in compliance with the Swiss laws for animal welfare and animal protocols were approved by the Swiss Cantonal Veterinary Office of Basel. For orthotopic engraftment of breast cancer cell lines, 2×10^6 T47D or 1×10^6 SUM159 cells were suspended in a 100 μl mixture of Basement Membrane Matrix Phenol Red-free (BD Biosciences) and PBS 1:1 and injected into the mouse mammary gland 4. […] Tumor-bearing mice were randomized based on tumor volume prior to the initiation of treatment, which started when average tumor volume was at least 100 mm^3. Fulvestrant and Tamoxifen hydrate dissolved in sunflower seed oil (all from Sigma) were injected intraperitoneally as indicated. Tumors were measured every 3 to 4 days with vernier calipers, and tumor volumes were calculated by the formula 0.5×(larger diameter)×(smaller diameter)^2.
For in vivo studies, fulvestrant and tamoxifen were dissolved in sunflower seed oil (Sigma) and injected intraperitoneal as indicated.

Structure (SMILES) | LATS1-induced degradation of ERα (ERα [1]) | colony formation in cells lacking LATS compared to controls (SUM159 and MDA 436) | degradation of ERα (ERα [2]) | reduction of tumor growth (T47D) | effect of LATS downregulation on sensitivity / viability of treated cells (T47D and MCF7 cells) | tumor growth of SUM159 shLATS xenografts (SUM159 shLATS xenografts) | tumor growth of SUM159 shLATS xenografts (SUM159 shLATS xenografts; listed as tamoxifen citrate)
CC(C)C[C@@H](C=O)NC(=O)[C@H](CC(C)C)NC(=O)[C@H](CC(C)C)NC(=O)OCc1ccccc1 [MG132] (Cbz-Leu-Leu-Leu-aldehyde) | prevented |  |  |  |  |  | 
C[C@]12CC[C@@H]3c4ccc(O)cc4C[C@@H](CCCCCCCCC[S+]([O-])CCCC(F)(F)C(F)(F)F)[C@H]3[C@@H]1CC[C@@H]2O (stereo partly drawn) [fulvestrant, Fulvestrant] |  | no effect | failed to degrade ERα | failed | reduced sensitivity |  | 
CC/C(=C(\c1ccccc1)c1ccc(OCCN(C)C)cc1)c1ccccc1 [tamoxifen, Tamoxifen] |  | reduced colony formation |  |  | no effect | stopped growing | susceptible
